How the values were obtained:
[1] = Inhibition of crude human PBMC extract prodrug hydrolase using [14C]GS-7340 substrate
Liver carboxylesterase = biological target: T1, Liver carboxylesterase (Sus scrofa, UniProt Q29550); assay: Inhibition of porcine liver carboxylesterase using [14C]GS-7340 substrate
T1 sequence (Q29550 whole entry): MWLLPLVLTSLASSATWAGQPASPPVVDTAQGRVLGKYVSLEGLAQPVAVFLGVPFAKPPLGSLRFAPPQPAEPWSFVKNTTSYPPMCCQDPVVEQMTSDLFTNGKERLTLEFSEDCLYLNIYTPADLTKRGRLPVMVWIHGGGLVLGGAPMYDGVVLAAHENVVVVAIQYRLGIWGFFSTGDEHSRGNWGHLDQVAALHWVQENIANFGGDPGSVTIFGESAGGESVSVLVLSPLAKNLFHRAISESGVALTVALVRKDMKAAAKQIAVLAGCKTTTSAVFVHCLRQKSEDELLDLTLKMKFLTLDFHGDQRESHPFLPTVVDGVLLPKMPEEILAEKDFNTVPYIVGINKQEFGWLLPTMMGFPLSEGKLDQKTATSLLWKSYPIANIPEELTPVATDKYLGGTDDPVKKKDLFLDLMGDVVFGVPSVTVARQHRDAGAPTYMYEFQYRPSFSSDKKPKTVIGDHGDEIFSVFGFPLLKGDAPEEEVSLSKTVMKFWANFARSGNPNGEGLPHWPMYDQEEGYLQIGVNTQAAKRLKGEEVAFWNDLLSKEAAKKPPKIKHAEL

[2] = Inhibition of purified prodrug hydrolase using [14C]GS-7340 substrate; set-up: species or system Homo sapiens
[3] = biological target: T2, Lysosomal protective protein (Homo sapiens, UniProt P10619); assay: Inhibition of recombinant CatA using [14C]GS-7340 substrate
T2 sequence (P10619 whole entry): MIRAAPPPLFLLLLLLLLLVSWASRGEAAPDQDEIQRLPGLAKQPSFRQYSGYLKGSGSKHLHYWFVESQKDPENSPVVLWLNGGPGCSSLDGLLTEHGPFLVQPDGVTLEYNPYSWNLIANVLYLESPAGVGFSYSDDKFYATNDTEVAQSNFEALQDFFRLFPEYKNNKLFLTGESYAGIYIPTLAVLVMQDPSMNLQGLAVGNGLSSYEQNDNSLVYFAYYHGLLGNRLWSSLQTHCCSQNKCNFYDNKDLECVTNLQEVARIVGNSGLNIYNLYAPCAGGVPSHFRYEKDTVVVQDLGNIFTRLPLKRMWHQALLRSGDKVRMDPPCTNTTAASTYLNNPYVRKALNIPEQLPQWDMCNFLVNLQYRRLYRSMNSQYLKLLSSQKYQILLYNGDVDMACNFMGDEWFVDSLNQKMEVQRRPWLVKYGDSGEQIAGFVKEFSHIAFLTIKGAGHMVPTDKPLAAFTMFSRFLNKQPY

Neutrophil elastase = biological target: T3, Neutrophil elastase (Homo sapiens, UniProt P08246); assay: Inhibition of human leukocyte elastase using [14C]GS7340 substrate
T3 sequence (P08246 whole entry): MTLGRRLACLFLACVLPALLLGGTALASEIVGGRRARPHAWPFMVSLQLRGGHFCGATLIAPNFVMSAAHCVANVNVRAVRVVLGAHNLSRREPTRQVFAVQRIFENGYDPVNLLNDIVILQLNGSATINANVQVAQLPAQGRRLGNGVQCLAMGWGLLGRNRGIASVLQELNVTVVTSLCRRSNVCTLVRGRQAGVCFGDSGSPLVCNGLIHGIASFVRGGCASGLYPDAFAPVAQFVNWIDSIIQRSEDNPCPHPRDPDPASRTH

Row | IC50 (Neutrophil elastase) [µM] | Structure (SMILES) | IC50 [1] [µM] | IC50 (Liver carboxylesterase) [µM] | IC50 [2] [µM] | IC50 [3] [µM]
1 | – | O=c1oc(Cl)c(Cl)c2ccccc12 | 5 | > 250 | 0.5 | 0.6
2 | > 300 | CC(C)C[C@H](NC(=O)[C@H]1O[C@@H]1C(=O)O)C(=O)NCCCCN=C(N)N [E-64] | > 300 | > 300 | > 300 | > 300
